Results taken from patent publication US20240270751A1, “Pyrazolopyridinone Compounds” (BeiGene Ltd., priority 2021, published 2024).

How the values were obtained:
DGKζ = DGKζ (Homo sapiens (Human), UniProt Q13574); test: Biochemical DGK IC50 assay, DGKζ ADP-Glo assay; settings: 0.5 nM enzyme, 140 μM ATP, 80 μM DAG; read-out: DGKζ ADP-Glo assay IC50
Procedure: (§1) Enzymatic reactions of DGKζ, DGKα and DGKδ were performed using ADP-Glo assay with lipid micelle substrate. […] Full length DGKα (D21-10BG, SignalChem) and full length DGKδ (D23-10G, SignalChem) were purchased. Lipid micelle was prepared by dissolving DAG (Sigma, 317505-10MG) and PS (Sigma, P7769-100MG) with chloroform which was furtherly removed by rotary evaporation. The resulted product was resuspended in buffer containing 25 mM HEPES pH 7.0, 0.5 mM EDTA and 160 mM Octyl β-D glucopyranoside by vigorous mixing and ultrasonic (IID, Scientz).
(§2) The ranges of compounds final concentration were 1.55˜10000 nM or 23.3˜150000 nM. 3 μL 2× enzyme solution was added to wells.
Human His-TEV-DGK-zeta-pFastBac1 and human baculovirus samples was generated using the Bac-to-Bac baculovirus expression system (Invitrogen) according to the manufacturer's protocol. The DNA used for expression of DGK-zeta, have SEQ ID Nos: 1. Baculovirus amplification was achieved using infected SF9 cells at 1:2000 virus/cells ratios, and grown for 96 hours at 27° C. post-transfected.
The expression scaled up for each protein was carried out in the […] from CORNING. 4 L of 3×10^6 cells/mL Sf9 cells (Expression System, Invitrogen) grown in SF900™ II SFM insect medium (Expression System) was infected with virus stock at 1:200 virus/cells ratio, and grown for 48 hours at 27° C. post-transfection. The infected cell culture was harvested by centrifugation at 6000 rpm for 15 min 4° C. in a SORVALL LYNX6000 centrifuge. The cell pellets were stored at −80° C.
Full length human DGKζ produced as described above, was purified from Sf9 baculovirus-infected insect cell paste. The cells were lysed using sonication method, and the lysates were clarified by centrifugation.

DGKα = DGKα (Homo sapiens (Human), UniProt P23743); test: Biochemical DGK IC50 assay, DGKα ADP-Glo assay; settings: 7.5 nM enzyme, 140 μM ATP, 80 μM DAG
Procedure: as §1, §2

Sequence of DGKζ (Q13574 other isoform, or with tags, fused parts or gaps): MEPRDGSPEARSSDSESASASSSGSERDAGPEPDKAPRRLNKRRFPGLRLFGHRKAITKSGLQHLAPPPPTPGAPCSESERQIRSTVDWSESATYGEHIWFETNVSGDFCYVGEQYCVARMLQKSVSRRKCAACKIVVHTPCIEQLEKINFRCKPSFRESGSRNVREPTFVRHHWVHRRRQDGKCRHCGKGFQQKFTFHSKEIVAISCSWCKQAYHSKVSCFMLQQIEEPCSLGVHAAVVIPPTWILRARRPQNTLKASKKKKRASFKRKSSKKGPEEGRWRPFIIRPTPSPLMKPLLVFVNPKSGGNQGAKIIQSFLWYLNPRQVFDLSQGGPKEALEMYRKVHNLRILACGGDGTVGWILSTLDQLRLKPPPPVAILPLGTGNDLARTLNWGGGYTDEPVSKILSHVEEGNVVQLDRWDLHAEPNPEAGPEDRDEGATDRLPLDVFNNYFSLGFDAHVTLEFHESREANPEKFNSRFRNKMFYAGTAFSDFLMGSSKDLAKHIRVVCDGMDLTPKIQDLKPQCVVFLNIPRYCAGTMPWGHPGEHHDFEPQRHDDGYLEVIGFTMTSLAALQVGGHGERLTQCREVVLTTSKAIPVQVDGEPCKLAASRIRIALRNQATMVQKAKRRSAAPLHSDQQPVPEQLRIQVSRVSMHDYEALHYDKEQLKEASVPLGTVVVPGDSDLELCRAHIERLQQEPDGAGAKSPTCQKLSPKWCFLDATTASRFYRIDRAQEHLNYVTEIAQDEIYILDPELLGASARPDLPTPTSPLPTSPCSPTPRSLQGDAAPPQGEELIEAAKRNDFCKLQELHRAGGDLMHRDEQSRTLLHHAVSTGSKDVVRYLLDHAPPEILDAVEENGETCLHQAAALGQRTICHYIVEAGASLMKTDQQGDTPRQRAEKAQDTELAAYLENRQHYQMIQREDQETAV
Sequence of DGKα (P23743 whole entry): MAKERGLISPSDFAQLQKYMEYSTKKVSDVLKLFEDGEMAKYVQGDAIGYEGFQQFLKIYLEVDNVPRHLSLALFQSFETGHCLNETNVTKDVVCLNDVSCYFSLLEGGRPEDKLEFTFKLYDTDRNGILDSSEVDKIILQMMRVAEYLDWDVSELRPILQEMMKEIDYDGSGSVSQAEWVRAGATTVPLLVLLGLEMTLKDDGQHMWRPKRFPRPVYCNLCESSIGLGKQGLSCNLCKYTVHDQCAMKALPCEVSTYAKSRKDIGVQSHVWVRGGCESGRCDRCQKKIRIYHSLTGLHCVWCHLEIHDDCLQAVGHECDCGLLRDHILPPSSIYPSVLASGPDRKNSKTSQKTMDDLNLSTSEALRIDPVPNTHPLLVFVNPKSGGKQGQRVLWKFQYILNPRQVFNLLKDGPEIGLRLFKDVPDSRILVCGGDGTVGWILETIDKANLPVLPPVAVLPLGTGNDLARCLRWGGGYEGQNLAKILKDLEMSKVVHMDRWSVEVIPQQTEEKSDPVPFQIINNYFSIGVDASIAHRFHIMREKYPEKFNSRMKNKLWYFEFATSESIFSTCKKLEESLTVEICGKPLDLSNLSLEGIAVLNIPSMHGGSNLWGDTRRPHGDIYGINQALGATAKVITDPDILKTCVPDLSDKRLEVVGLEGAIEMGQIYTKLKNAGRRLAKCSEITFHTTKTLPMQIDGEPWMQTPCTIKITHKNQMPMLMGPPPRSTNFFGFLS

Compound | IC50 (DGKζ) | IC50 (DGKα)
CC[C@@H]1CN(c2cc(=O)n(C)c3cn(CC#N)nc23)[C@@H](CC)CN1C(=O)c1ccc2cccnc2c1 [Compound A373] | 3.22 µM | 21.8 µM
CC[C@H]1CN(C(C)c2ccc3nc(OC)cnc3c2)[C@H](CC)CN1c1cc(=O)n(C)c2cn(CC#N)nc12 (single isomer, unassigned) [Compound A281a] | 0.077 µM | 6.65 µM
CC[C@@H]1CN(c2c(C#N)c(=O)n(CC#N)c3cn(CC#N)nc23)[C@@H](C)CN1C(C)c1ccc2nccnc2c1 (stereo partly drawn) [Compound A189, 2,2′-(6-cyano-7-((2S,5R)-5-ethyl-2-methyl-4-(1-(quinoxalin-6-yl)ethyl)piperazin-1-yl)-5-oxo-2H-pyrazolo[4,3-b]pyridine-2,4(5H)-diyl)diacetonitrile] | 3.1 µM | > 10 µM
CC[C@H]1CN(C(C)c2ccc(C(F)(F)F)cc2F)[C@H](CC)CN1c1cc(=O)n(C)c2cn(CC#N)nc12 (single isomer, unassigned) [Compound A69b] | 4.9 µM | 3 µM
CC[C@H]1CN(C(C)c2c(F)cc(F)cc2OC)[C@H](CC)CN1c1cc(=O)n(C)c2cn(CC#N)nc12 (single isomer, unassigned) [Compound A201b] | > 10 µM | > 10 µM
CC[C@H]1CN([C@@H](C)c2nc3ncccc3n2CC)[C@H](CC)CN1c1cc(=O)n(C)c2cn(CC#N)nc12 (single isomer, unassigned) [Compound A215b] | 1.14 µM | > 10 µM
CC(c1ccc(F)cc1C(C)(F)F)N1C[C@H](C)N(c2cc(=O)n(C)c3cn(CC#N)nc23)C[C@H]1C (stereo partly drawn) [Compound A254, 2-(7-((2S,5R)-4-(1-(2-(1,1-difluoroethyl)-4-fluorophenyl)ethyl)-2,5-dimethylpiperazin-1-yl)-4-methyl-5-oxo-4,5-dihydro-2H-pyrazolo[4,3-b]pyridin-2-yl)acetonitrile] | 0.307 µM | > 10 µM
CC[C@H]1CN(C(C)c2ccc(F)cn2)[C@H](CC)CN1c1cc(=O)n(C)c2cn(CC#N)nc12 (single isomer, unassigned) [Compound A74b] | 5.45 µM | 0.187 µM
CC[C@H]1CN(C(C)c2ccc(F)cc2OCCOC)[C@H](CC)CN1c1cc(=O)n(C)c2cn(CC#N)nc12 (some centres unmarked) [Compound A85] | 1.18 µM | 5.28 µM
CC[C@H]1CN(C(C)c2nn(CC)cc2C)[C@H](CC)CN1c1cc(=O)n(C)c2cn(CC#N)nc12 (some centres unmarked) [Compound A216] | 2.37 µM | > 10 µM
CC#CCn1cc2c(n1)c(N1C[C@@H](CC)N(C(C)c3ccc(C(F)(F)F)cc3F)C[C@@H]1CC)cc(=O)n2C (single isomer, unassigned) [Compound A334b] | > 10 µM | 0.893 µM
CC[C@H]1CN(C(C)c2nccn2CC)[C@H](CC)CN1c1cc(=O)n(C)c2cn(CC#N)nc12 (some centres unmarked) [Compound A174] | 57.9 µM | 105 µM
CC[C@H]1CN(C(C)c2c(F)cc(F)cc2OC)[C@H](CC)CN1c1cc(=O)n(C)c2cn(CC#N)nc12 (single isomer, unassigned) [Compound A201a] | 0.043 µM | > 10 µM
CC[C@H]1CN(C(C)c2ccc3cnccc3c2)[C@H](CC)CN1c1cc(=O)n(C)c2cn(CC#N)nc12 (some centres unmarked) [Compound A48] | 0.073 µM | 0.075 µM
CC[C@H]1CN(C(C)c2ccc(OC3CCOC3)cc2)[C@H](CC)CN1c1cc(=O)n(C)c2cn(CC#N)nc12 (stereo partly drawn) [Compound A375, 2-(7-((2S,5R)-2,5-diethyl-4-(1-(4-((tetrahydrofuran-3-yl)oxy)phenyl)ethyl)piperazin-1-yl)-4-methyl-5-oxo-4,5-dihydro-2H-pyrazolo[4,3-b]pyridin-2-yl)acetonitrile] | 0.944 µM | 0.2 µM
CC[C@H]1CN(C(C)c2ccc3nc(O)cnc3c2)[C@H](CC)CN1c1cc(=O)n(C)c2cn(CC#N)nc12 (single isomer, unassigned) [Compound A282a] | 5.35 µM | 0.182 µM
